Values quoted from earlier work in PMC11768433 (Viruses, 2024).
Read-outs that look alike come from different tables or passages of the source.

Assays:
[1] = system: HCoV-229E; design: method as in Ref.35216177; details: HCoV-229E replication, Vero cells; ref Ref.35216177
[2] = system: HSV-1; design: method as in Ref.35216177; details: HSV-1 replication, Vero cells; ref Ref.35216177
[3] = system: HCoV-OC43; design: method as in Ref.35216177; details: HCoV-OC43 replication, Vero cells; ref Ref.35216177
[4] = system: Vero cells; design: method as in Ref.35216177; details: ref Ref.35216177
[5] = system: SARS-CoV-2; design: method as in Ref.35216177; details: SARS-CoV-2 replication, Vero cells; ref Ref.35216177
[6] = system: HSV-2; design: method as in Ref.35216177; details: HSV-2 replication, Vero cells; ref Ref.35216177
[7] = system: P4 cells; design: method as in Ref.12054767; details: MTT assay, peptide concentrations higher than 100 μM, ref Ref.12054767
[8] = system: influenza virus(H1N1,VR-1894); design: method as in Ref.35216177; details: influenza H1N1 VR-1894 replication, MDKC cells; ref Ref.35216177
[9] = system: TZM-bl cell; design: method as in Ref.30089693; details: ref Ref.30089693
[10] = system: PBMC
[11] = system: P4-CCR5 cells; design: method as in Ref.17448989; details: up to 1000 µM, ref Ref.17448989
[12] = system: Vero cells; design: method as in Ref.28344321; details: ref Ref.28344321
[13] = system: Human parainfluenza viruse 3(HPIV 3); design: method as in Ref.28344321; details: HPIV 3 infection, Vero cells; ref Ref.28344321
[14] = system: MT-4 cell; design: method as in Ref.30089693; details: ref Ref.30089693
[15] = system: Human endocervical cells End1/E6E7; design: method as in Ref.26026377; details: ref Ref.26026377
[16] = system: H9 cells; design: method as in Ref.12480936; details: up to 50 μM, ref Ref.12480936
[17] = system: Feline immunodeficiency virus (FIV); details: FIV replication, CrFK cells, at 16 µg/ml; ref Ref.8661378
[18] = system: Vero cells; design: method as in Ref.18572274; details: up to 500 μM, ref Ref.18572274

## FVPWFSKFlxRIL [DRAVPe00382, DRAVP database entry, TL peptide]
[1]
  IC90: > 50 µM
[2]
  IC90: 12.8 µM
[3]
  IC90: 24.7 µM
[4]
  CC50: 32.16 µM
[5]
  IC90: 17.4 µM
[6]
  IC90: 11.9 µM

## FVPWFSKFlwRIL [DRAVPe00386, DRAVP database entry, TL peptide]
[1]
  IC90: 50 µM
[2]
  IC90: 7.89 µM
[3]
  IC90: 17.4 µM
[4]
  CC50: 24.12 µM
[5]
  IC90: 14.8 µM
[6]
  IC90: 9.76 µM

## YQLLIRPIYKNI [DRAVPe00110, DRAVP database peptide, target HIV-1 integrase]
[7]
  decrease of cell viability: ~5%

## CFVPWFSKFlXRIL [DRAVPe00391, DRAVP database entry, TL peptide]
[2]
  IC90: 2.19 µM
[8]
  IC90: 5.89 µM
[4]
  CC50: [Ref.35216177]Vero cells:CC50>100.00 μM
[5]
  IC90: 1.89 µM

## WEQKIEELLKKAEEQQKKNEEELKKLEX [DRAVPe00785]
[9]
  CC50: 112.9 µM
[10]; PBMC, ref Ref.30089693
  CC50: 114.8 µM

## KVINPEPIVEPFMSKPFALF [DRAVPe00230]
[11]
  cytotoxicity: [Ref.17448989]No cytotoxicity against P4-CCR5 cells up tp 1000 µM.

## LEAIPCSIPPCFAFNKPFVF [DRAVPe00222]
[11]
  cytotoxicity: [Ref.17448989]No cytotoxicity against P4-CCR5 cells up tp 1000 µM.

## LEAIPCSIPpCFLFNKPFVF [DRAVPe00227]
[11]
  cytotoxicity: [Ref.17448989]No cytotoxicity against P4-CCR5 cells up tp 1000 µM.

## XGSGSGVALDPIDIAnti-SIVLNKAKSDLEESKEWIRRSNGKLDSI [DRAVPe01796]
[12]
  CC50: [Ref.28344321]Vero cells: CC50>10000 nM.
[13]
  IC90: 0.0001 ± 1e-07 µM

## YTSLIHSLIEESQNQQEKNEQELLELDX [DRAVPe00782]
[9]
  CC50: 800.8 µM
[14]
  CC50: 366.3 µM
[10]; PBMC, ref Ref.30089693
  CC50: 212.6 µM

## YQLAIRMIYKNI [DRAVPe00098, DRAVP database peptide, target HIV-1 integrase]
[7]
  decrease of cell viability: ~5%

## GLLSVLGSVVKHVIPHVVPVIAEHL [DRAVPe00360, DRAVP database peptide, target HIV]
[15]
  concentration at 50% cell death: 12.5 µM

## IEELLKKAEEQQKKNEEELKKLEX [DRAVPe00660]
[9]
  CC50: 256.23 µM
[10]; PBMC, ref Ref.30089693
  CC50: 49.95 ± 2.97 µM

## FVQWFSKFLGRIL [DRAVPe00376, DRAVP database entry, TL peptide]
[2]
  IC90: 15.7 µM
[4]
  CC50: 19.61 µM
[6]
  IC90: 16 µM

## KPKQIKPPLPSV [DRAVPe00130, DRAVP database peptide, target HIV-1 Vif proteins]
[16]
  cytotoxicity: [Ref.12480936]No significant cytotoxicity on H9 cells up to 50 μM.

## GLFSVLGAVAKHVLPHVVPVIAEKL [DRAVPe00355, DRAVP database peptide, target HIV]
[15]
  concentration at 50% cell death: 10 µM

## CGGFVPWFSKFlXRIL [DRAVPe00392, DRAVP database entry, TL peptide]
[2]
  IC90: 8.21 µM
[8]
  IC90: 9.9 µM
[4]
  CC50: [Ref.35216177]Vero cells:CC50>100.00 μM
[5]
  IC90: 10.2 µM

## LKAKTNISIREGPTLGNWAR [DRAVPe00841, DRAVP database peptide, target FIV]
[17]
  inhibition: 24%

## LEAIPMSIPPEFLFGKPFVF [DRAVPe00223]
[11]
  cytotoxicity: [Ref.17448989]No cytotoxicity against P4-CCR5 cells up tp 1000 µM.

## LSELDDRADALQAGASQFETSAAKLKRKYWWKN [DRAVPe00111, DRAVP database peptide, target HIV-1 integrase]
[7]
  decrease of cell viability: ~5%

## GLASTLTRWAHYNALIRAF [DRAVPe01424]
[18]
  cytotoxicity: [Ref.18572274]No cytotoxicity against Vero cells up to 500 μM.

## FVPWFSKFlXRILGGC [DRAVPe00390, DRAVP database entry, TL peptide]
[2]
  IC90: 48 µM
[8]
  IC90: 49.9 µM
[4]
  CC50: [Ref.35216177]Vero cells:CC50>100.00 μM
[5]
  IC90: 50 µM

## QLLIRMIYKNI [DRAVPe00109, DRAVP database peptide, target HIV-1 integrase]
[7]
  decrease of cell viability: ~5%

## LEAIPMGIPpEVXFNKPFVF [DRAVPe00228]
[11]
  cytotoxicity: [Ref.17448989]No cytotoxicity against P4-CCR5 cells up tp 1000 µM.

## FVPWFSKFlXRILC [DRAVPe00389, DRAVP database entry, TL peptide]
[2]
  IC90: 11.1 µM
[8]
  IC90: 10 µM
[4]
  CC50: [Ref.35216177]Vero cells:CC50>100.00 μM
[5]
  IC90: 12 µM

## FVPWFSKFlGRIL [DRAVPe00377, DRAVP database entry, TL peptide]
[1]
  IC90: 30.1 µM
[2]
  IC90: 18.7 µM
[3]
  IC90: 15 µM
[4]
  CC50: 42.18 µM
[5]
  IC90: 12.1 µM
[6]
  IC90: 16.7 µM

## FVPWFSKFlWRIL [DRAVPe00385, DRAVP database entry, TL peptide]
[1]
  IC90: 50 µM
[2]
  IC90: 8.25 µM
[3]
  IC90: 24.2 µM
[4]
  CC50: 35.47 µM
[5]
  IC90: 27.7 µM
[6]
  IC90: 12.5 µM

## IEELIKKSEEQQKKNEEELKKLEX [DRAVPe00656]
[9]
  CC50: 193.63 µM
[14]
  CC50: 164.47 µM
[10]; PBMC, ref Ref.30089693
  CC50: 46.43 µM

## VALDPIDIAnti-SIVLNKAKSDLEESKEWIRRSNGKLDSIGSGSGC [DRAVPe01791]
[12]
  CC50: [Ref.28344321]Vero cells: CC50>10000 nM.
[13]
  IC90: 0.28 ± 0.247 µM

## LPLPAPSFHRTT [DRAVPe00128, DRAVP database peptide, target HIV-1 Vif proteins]
[16]
  cytotoxicity: [Ref.12480936]No significant cytotoxicity on H9 cells up to 50 μM.

## FVPWFSKFlXRIL [DRAVPe00380, DRAVP database entry, TL peptide]
[1]
  IC90: > 50 µM
[2]
  IC90: 15.9 µM
[3]
  IC90: 27.7 µM
[4]
  CC50: 60.90 µM
[5]
  IC90: 25 µM
[6]
  IC90: 19 µM

## FVPWFSKFlPRIL [DRAVPe00378, DRAVP database entry, TL peptide]
[2]
  IC90: 18.8 µM
[3]
  IC90: 24.1 µM
[4]
  CC50: 56.52 µM
[5]
  IC90: 14 µM
[6]
  IC90: 19.2 µM

## GLFKVLGSVAKHLLPHVAPVIAEKL [DRAVPe00356, DRAVP database peptide, target HIV]
[15]
  concentration at 50% cell death: 12.5 µM

## FVPWFSKFlpRIL [DRAVPe00379, DRAVP database entry, TL peptide]
[4]
  CC50: [Ref.35216177]Vero cells:CC50>100 μM

## YTSLIEELIKKSEEQQKKNEEELKKLEX [DRAVPe00783]
[9]
  CC50: 106.4 µM
[14]
  CC50: 138.37 µM
[10]
  CC50: 40.01 µM

## PACQDFLGAMIHLKAKTNISIR [DRAVPe00840, DRAVP database peptide, target FIV]
[17]
  inhibition: 28%

## QLLIRMIYKNILFYLVPGPGHGAEPERRNIKYL [DRAVPe00090, DRAVP database peptide, target HIV-1 integrase]
[7]
  decrease of cell viability: ~5%

## LFYLVPGPGH [DRAVPe00094, DRAVP database peptide, target HIV-1 integrase]
[7]
  decrease of cell viability: ~5%

## LEAIPCSIPPCVFFNKPFVF [DRAVPe00221]
[11]
  cytotoxicity: [Ref.17448989]No cytotoxicity against P4-CCR5 cells up tp 1000 µM.

## VALDPIDIAnti-SIVLNKAKSDLEESKEWIRRSNGKLDSIGSGSGX [DRAVPe01793]
[12]
  CC50: 4.5 µM
[13]
  IC90: 0.0007 ± 7e-06 µM

## LEAIPMSIPPEVKFNKPFVF [DRAVPe00192]
[11]
  cytotoxicity: [Ref.17448989]No cytotoxicity against P4-CCR5 cells up tp 1000 µM.

## YQLLIRMIYANI [DRAVPe00104, DRAVP database peptide, target HIV-1 integrase]
[7]
  decrease of cell viability: ~5%

## YLDRVDTWLQGKINISLCLT [DRAVPe00846, DRAVP database peptide, target FIV]
[17]
  inhibition: 9%

## YQALIRMIYKNI [DRAVPe00097, DRAVP database peptide, target HIV-1 integrase]
[7]
  decrease of cell viability: ~5%

## FVPWFSKFlXRIL [DRAVPe00396, DRAVP database entry, TL peptide]
[2]
  IC90: 4.96 µM
[8]
  IC90: 7.11 µM
[4]
  CC50: [Ref.35216177]Vero cells:CC50>100.00 μM
[5]
  IC90: 6.96 µM

## SNQGGSPLPRSV [DRAVPe00127, DRAVP database peptide, target HIV-1 Vif proteins]
[16]
  cytotoxicity: [Ref.12480936]No significant cytotoxicity on H9 cells up to 50 μM.

## LEANIEELLKKAEEQQKKNEEELKKLEX [DRAVPe00784]
[9]
  CC50: 434.03 µM
[10]; PBMC, ref Ref.30089693
  CC50: 46.83 µM
